Experimental data taken from paper PMC7859440, “Transporter Gene Regulation in Sandwich Cultured Human Hepatocytes Through the Activation of Constitutive Androstane Receptor (CAR) or Aryl Hydrocarbon Receptor (AhR)” (Frontiers in Pharmacology, 2021).
“And” between values parts separate entries of the source, which are not always exact repeats. Equal entries are not always repeated.

Legend:
CYP3A4 = assay: in vitro; settings: for EC50 at 72 h: human
Protocol: (§1) Cryopreserved human hepatocytes were quickly thawed at 37°C and then transferred into hepatocyte thawing medium. Cells were pelleted at 100 × g for 10 min and then resuspended in hepatocyte complete plating medium (CP medium). The cells were then seeded at 65,000 cells per well in 96-well collagen I coated plates. After cell attachment (4–6 h post-seeding), CP medium was exchanged for ice-cold complete incubation medium (HI medium) containing BD Matrigel™ at the concentration of 0.25 mg/ml. The cells were then incubated overnight at 37°C in a humidified 5% CO2 incubator. […] Cell death or loss of adhesion of hepatocytes during or after treatment were examined by microscopy.
(§2) A RNeasy 96 Kit (Qiagen) was used to extract the total cellular RNA from sandwich cultured hepatocytes in 96-well plates following the manufacturer's instructions. A total volume of 200 μL RNA was obtained via the column elution provided in the RNeasy kit. Five μL RNA extraction was mixed with TaqMan® Fast Virus 1-Step Master Mix (Life Technologies) in a final reaction volume of 20 μL and qRT-PCR was achieved using a QuantStudio 6 Flex Real-Time PCR System (Life Technologies), following the manufacturer's instructions. β-actin mRNA expression in the SCHH was used as a house-keeping gene for the normalization of target gene expressions. The mRNA levels in SCHH treated with AhR or CAR activators were expressed by a fold change, compared to the gene expressions without the treatment. […] Gene expression for each condition is expressed as a fold-change of mean ± standard deviation (SD) from three independent donors (each performed in triplicate). All primer and probe sets were purchased from Life Technologies (Table 2). When concentration-dependent induction observed, the in vitro induction mRNA data were fitted using the sigmoid 3-parameter equation in GraphPad Prism (La Jolla, CA) to estimate the in vitro concentration of inducer that produced half the maximum induction values (EC50).

CYP2B6 = assay: in vitro
Protocol: as §1, §2

SLC22A9 (OAT7) = assay: gene induction in sandwich-cultured human hepatocytes (qRT-PCR); format: cell-based; settings: SCHH, 72 h; TCDD 50 nM, OP 50 µM, CITCO 5 µM, PB 1,000 µM (highest conc.); mean ± SD, three donors
SLC51B (OSTβ) = assay: as above; format: cell-based; settings: SCHH, 72 h; TCDD 50 nM, OP 50 µM, CITCO 5 µM, PB 1,000 µM (highest conc.); mean ± SD, three donors
ABCC2 (MRP2) = assay: as above; format: cell-based; settings: SCHH, 72 h; TCDD 50 nM, OP 50 µM, CITCO 5 µM, PB 1,000 µM (highest conc.); mean ± SD, three donors
Protocol: as §1
(§3) A RNeasy 96 Kit (Qiagen) was used to extract the total cellular RNA from sandwich cultured hepatocytes in 96-well plates following the manufacturer's instructions. A total volume of 200 μL RNA was obtained via the column elution provided in the RNeasy kit. Five μL RNA extraction was mixed with TaqMan® Fast Virus 1-Step Master Mix (Life Technologies) in a final reaction volume of 20 μL and qRT-PCR was achieved using a QuantStudio 6 Flex Real-Time PCR System (Life Technologies), following the manufacturer's instructions. β-actin mRNA expression in the SCHH was used as a house-keeping gene for the normalization of target gene expressions. The mRNA levels in SCHH treated with AhR or CAR activators were expressed by a fold change, compared to the gene expressions without the treatment. The 2^−ΔΔCt method ([Livak and Schmittgen, 2001]) was used to analyze the relative changes in gene expression, where the Ct is the cycle number at which the fluorescence in the reaction crosses the preset arbitrary threshold; the ΔCt represents the difference between the Ct target and reference and the ΔΔCt is the difference between the ΔCt of the test and the ΔCt of the preassigned control. Gene expression for each condition is expressed as a fold-change of mean ± standard deviation (SD) from three independent donors (each performed in triplicate). All primer and probe sets were purchased from Life Technologies (Table 2). When concentration-dependent induction observed, the in vitro induction mRNA data were fitted using the sigmoid 3-parameter equation in GraphPad Prism (La Jolla, CA) to estimate the in vitro concentration of inducer that produced half the maximum induction values (EC50).

SLC22A1 (OCT1) = assay: as above; format: cell-based; settings: SCHH, 72 h; TCDD 50 nM, OP 50 µM, CITCO 5 µM, PB 1,000 µM (highest conc.); mean ± SD, three donors
Protocol: as §1, §3

SLCO1B1 (OATP1B1) = assay: as above; format: cell-based; settings: SCHH, 72 h; TCDD 50 nM, OP 50 µM, CITCO 5 µM, PB 1,000 µM (highest conc.); mean ± SD, three donors
Protocol: as §1, §3

ABCC4 (MRP4) = assay: as above; format: cell-based; settings: SCHH, 72 h; TCDD 50 nM, OP 50 µM, CITCO 5 µM, PB 1,000 µM (highest conc.); mean ± SD, three donors
Protocol: as §1, §3

ABCC5 (MRP5) = assay: as above; format: cell-based; settings: SCHH, 72 h; TCDD 50 nM, OP 50 µM, CITCO 5 µM, PB 1,000 µM (highest conc.); mean ± SD, three donors
Protocol: as §1, §3

ABCG2 (BCRP) = assay: as above; format: cell-based; settings: SCHH, 72 h; TCDD 50 nM, OP 50 µM, CITCO 5 µM, PB 1,000 µM (highest conc.); mean ± SD, three donors
Protocol: as §1, §3

SLCO2B1 (OATP2B1) = assay: as above; format: cell-based; settings: SCHH, 72 h; TCDD 50 nM, OP 50 µM, CITCO 5 µM, PB 1,000 µM (highest conc.); mean ± SD, three donors
Protocol: as §1, §3

ABCB11 (BSEP) = assay: as above; format: cell-based; settings: SCHH, 72 h; TCDD 50 nM, OP 50 µM, CITCO 5 µM, PB 1,000 µM (highest conc.); mean ± SD, three donors
Protocol: as §1, §3

SLC47A1 (MATE1) = assay: as above; format: cell-based; settings: SCHH, 72 h; TCDD 50 nM, OP 50 µM, CITCO 5 µM, PB 1,000 µM (highest conc.); mean ± SD, three donors
Protocol: as §1, §3

SLCO1B3 (OATP1B3) = assay: as above; format: cell-based; settings: SCHH, 72 h; TCDD 50 nM, OP 50 µM, CITCO 5 µM, PB 1,000 µM (highest conc.); mean ± SD, three donors
Protocol: as §1, §3

ABCC6 (MRP6) = assay: as above; format: cell-based; settings: SCHH, 72 h; TCDD 50 nM, OP 50 µM, CITCO 5 µM, PB 1,000 µM (highest conc.); mean ± SD, three donors
Protocol: as §1, §3

ABCC3 (MRP3) = assay: as above; format: cell-based; settings: SCHH, 72 h; TCDD 50 nM, OP 50 µM, CITCO 5 µM, PB 1,000 µM (highest conc.); mean ± SD, three donors
Protocol: as §1, §3

ABCB1 (MDR1) = assay: as above; format: cell-based; settings: SCHH, 72 h; TCDD 50 nM, OP 50 µM, CITCO 5 µM, PB 1,000 µM (highest conc.); mean ± SD, three donors
Protocol: as §1, §3

SLCO4C1 (OATP4C1) = assay: as above; format: cell-based; settings: SCHH, 72 h; TCDD 50 nM, OP 50 µM, CITCO 5 µM, PB 1,000 µM (highest conc.); mean ± SD, three donors
Protocol: as §1, §3

SLC16A1 (MCT1) = assay: as above; format: cell-based; settings: SCHH, 72 h; TCDD 50 nM, OP 50 µM, CITCO 5 µM, PB 1,000 µM (highest conc.); mean ± SD, three donors
SLC51A (OSTα) = assay: as above; format: cell-based; settings: SCHH, 72 h; TCDD 50 nM, OP 50 µM, CITCO 5 µM, PB 1,000 µM (highest conc.); mean ± SD, three donors
SLC15A1 (PEPT1) = assay: as above; format: cell-based; settings: SCHH, 72 h; TCDD 50 nM, OP 50 µM, CITCO 5 µM, PB 1,000 µM (highest conc.); mean ± SD, three donors
SLC10A1 (NTCP) = assay: as above; format: cell-based; settings: SCHH; for SLC10A1 gene suppression (reduction): 3 days, highest concentration treated
SLC22A7 (OAT2) = assay: as above; format: cell-based; settings: SCHH, 72 h; TCDD 50 nM, OP 50 µM, CITCO 5 µM, PB 1,000 µM (highest conc.); mean ± SD, three donors
SLC29A2 (ENT2) = assay: as above; format: cell-based; settings: SCHH, 72 h; TCDD 50 nM, OP 50 µM, CITCO 5 µM, PB 1,000 µM (highest conc.); mean ± SD, three donors
[1] = test system: 24 hepatic drug transporter genes (mRNA); assay: gene induction in sandwich-cultured human hepatocytes (qRT-PCR), transporter panel; format: cell-based; settings: sandwich-cultured human hepatocytes (SCHH), generally, 24 transporter genes, read-out: average fold change (fold induction) of transporter genes
SLC22A5 (OCTN2) = assay: gene induction in sandwich-cultured human hepatocytes (qRT-PCR); format: cell-based; settings: SCHH, 72 h; TCDD 50 nM, OP 50 µM, CITCO 5 µM, PB 1,000 µM (highest conc.); mean ± SD, three donors
UGT1A1 = assay: as above; settings: for EC50 at 72 h: human, sandwich-cultured human hepatocytes (SCHH)
Protocol: as §1, §3

SLC29A1 (ENT1) = assay: as above; format: cell-based; settings: SCHH, 72 h; TCDD 50 nM, OP 50 µM, CITCO 5 µM, PB 1,000 µM (highest conc.); mean ± SD, three donors
CYP1A2 = settings: SCHH, 72 h; TCDD 50 nM, OP 50 µM, CITCO 5 µM, PB 1,000 µM (highest conc.); mean ± SD, three donors
Protocol: as §1
A RNeasy 96 Kit (Qiagen) was used to extract the total cellular RNA from sandwich cultured hepatocytes in 96-well plates following the manufacturer's instructions. A total volume of 200 μL RNA was obtained via the column elution provided in the RNeasy kit. […] Gene expression for each condition is expressed as a fold-change of mean ± standard deviation (SD) from three independent donors (each performed in triplicate). […]

CYP1A1 = assay: in vitro; settings: human
Protocol: as §1
as §3, with “When concentration-dependent induction observed, the in vitro induction mRNA data were fitted using the sigmoid 3-parameter equation in GraphPad Prism (La Jolla, CA) to estimate the in vitro concentration of inducer that produced half the maximum induction values (EC50).” left out

[2] = SCHH, 72 h, TCDD 50 nM, OP 50 µM, CITCO 5 µM, PB 1,000 µM (highest conc.), mean ± SD, three donors

Clc1ccc(-c2nc3sccn3c2C=NOCc2ccc(Cl)c(Cl)c2)cc1 [CITCO, 6-(4-chlorophenyl)imidazo[2,1-b][1,3]thiazole-5-carbaldehyde O-(3,4-dichlorobenzyl)oxime]
EC50 at 72 h (CYP2B6; human, sandwich-cultured human hepatocytes (SCHH)): 0.16 ± 0.04 µM
SLC10A1 gene suppression (reduction) (SLC10A1 (NTCP)): about 2 fold
EC50 at 72 h (UGT1A1): > 5 µM

COc1ccc2[nH]c([S+]([O-])Cc3ncc(C)c(OC)c3C)nc2c1 (stereo not shown) [OP, Omeprazole]
SLC10A1 gene suppression (reduction) (SLC10A1 (NTCP)): about 2 fold
EC50 at 72 h (CYP1A1): 3.34 ± 1.39 µM
EC50 at 72 h (UGT1A1): 28.7 ± 7.32 µM
